# Legend:
# [1] = test system: patients with septic shock; experiment: AdrenOSS-2 phase II clinical trial in septic shock with elevated adrenomedullin; assay type: in vivo, human
# Description: AdrenOSS-2 is a double-blind, placebo-controlled, randomized, multicenter, proof of concept and dose-finding phase II clinical trial to investigate the safety, tolerability and efficacy of the N-terminal ADM antibody named Adrecizumab in patients with septic shock and elevated adrenomedullin (Geven et al. BMJ Open 2019;9:e024475). In total, 301 patients with septic shock and bio-ADM concentration >70 pg/mL were randomized (2:1:1) to treatment with a single intravenous infusion over approximately 1 hour with either placebo (n=152), adrecizumab 2 ng/kg (n=72) or adrecizumab 4 ng/kg (n=77). All-cause mortality within 28 (90) days after inclusion was 25.8% (34.8%). Mean age was 68.4 years and 61% were male. For the per protocol analysis, n=294 patients remained eligible, and 14-day all-cause mortality rate was 18.5%.
# In patients treated with Adrecizumab (both doses combined, per protocol population), a trend to lower short term mortality (14 days post admission) was observed compared to placebo (Hazard ratio (HR) 0.701 [0.408-1.21], p=0.100) (FIG. 8).
# No such interaction was detected which in other words means, that the beneficial treatment effect was detectable for all patients independent of their pre-dose bio-ADM concentration.
# This is further illustrated in Kaplan Meier Plots, where the patient populations were separated by their pre-dose bio-ADM concentration (below/above bio-ADM median) (see FIG. 11a and FIG. 11b).
# [2] = test system: mice with CLP-induced sepsis; conditions: pre-treatment; cited from earlier work
# endotoxemic rats = conditions: pre-treatment; cited from earlier work
substance,measurement,setting,value
"Adrecizumab: humanized version of an N-terminal anti-ADM antibody; heavy chain SEQ ID NO: 32, light chain SEQ ID NO: 33","HR, 14-day mortality vs placebo","[1]; DPP3 above 50 ng/mL, n=44",1.69
same,"HR, 14-day mortality vs placebo","[1]; pre-dose DPP3 < 50 ng/mL, n=244",0.426
same,"HR, 14-day mortality vs placebo","[1]; pre-dose DPP3 < 40, n=227",0.385
same,"HR, 14-day mortality vs placebo","[1]; pre-dose DPP3 < 60, n=254",0.449
same,"HR, 14-day mortality vs placebo","[1]; pre-dose DPP3 < 70, n=261",0.546
same,"HR, 14-day mortality vs placebo","[1]; pre-dose DPP3 < 90, n=273",0.606
same,renal vascular leakage,[2],attenuated renal vascular leakage
same,renal vascular leakage,endotoxemic rats,attenuated renal vascular leakage

# Source: patent publication US20230104578A1, “ANTI-ADRENOMEDULLIN (ADM) ANTIBODY OR ANTI-ADM ANTIBODY FRAGMENT OR ANTI-ADM NON-IG SCAFFOLD FOR USE IN THERAPY OR PREVENTION OF SHOCK” (ADRENOMED AG, priority 2020, published 2023)
